The values below come from the NIST ThermoML archive (doi:10.1016/j.jct.2008.04.002).

The data set can be described thus: activity coefficient (dimensionless); of the first substance listed, at infinite dilution; xn = mol fraction of the nth substance listed. The settings on record: Liquid, Chromatography, x1 = 0.

Numbers after ± are expanded uncertainties.

Consider `CCCCCCC` [heptane] + CC(CC(C)(C)C)CP(=O)([O-])CC(C)CC(C)(C)C.CCCCCCCCCCCCCC[P+](CCCCCC)(CCCCCC)CCCCCC, for which the activity coefficient amounted to 0.77 ± 0.07 (303.15 K), 0.79 ± 0.07 (308.15 K), 0.81 ± 0.07 (313.15 K) and 0.83 ± 0.07 (318.15 K).

`C1CCCCCC1` [cycloheptane] + CC(CC(C)(C)C)CP(=O)([O-])CC(C)CC(C)(C)C.CCCCCCCCCCCCCC[P+](CCCCCC)(CCCCCC)CCCCCC: the activity coefficient by setting is: (303.15 K) 0.56 ± 0.05; (308.15 K) 0.56 ± 0.05; (313.15 K) 0.58 ± 0.05; (318.15 K) 0.6 ± 0.05.

Take `C#CCCCCC` [1-heptyne] + CC(CC(C)(C)C)CP(=O)([O-])CC(C)CC(C)(C)C.CCCCCCCCCCCCCC[P+](CCCCCC)(CCCCCC)CCCCCC: the activity coefficient stood at 0.33 ± 0.04 (303.15 K), 0.35 ± 0.04 (308.15 K), 0.39 ± 0.04 (313.15 K) and 0.41 ± 0.04 (318.15 K).

As for `C#CCCCC` [1-hexyne] + CC(CC(C)(C)C)CP(=O)([O-])CC(C)CC(C)(C)C.CCCCCCCCCCCCCC[P+](CCCCCC)(CCCCCC)CCCCCC, the activity coefficient came to 0.38 ± 0.04 (303.15 K), 0.4 ± 0.04 (308.15 K), 0.43 ± 0.04 (313.15 K) and 0.46 ± 0.04 (318.15 K).

Consider `C=CCCCC` [hex-1-ene] + CC(CC(C)(C)C)CP(=O)([O-])CC(C)CC(C)(C)C.CCCCCCCCCCCCCC[P+](CCCCCC)(CCCCCC)CCCCCC, for which the activity coefficient reads like this: (303.15 K) 0.63 ± 0.06; (308.15 K) 0.65 ± 0.06; (313.15 K) 0.68 ± 0.06; (318.15 K) 0.7 ± 0.06.

As to `C=CCCC` [1-pentene] + CC(CC(C)(C)C)CP(=O)([O-])CC(C)CC(C)(C)C.CCCCCCCCCCCCCC[P+](CCCCCC)(CCCCCC)CCCCCC, the activity coefficient by setting is: (303.15 K) 0.59 ± 0.05; (308.15 K) 0.61 ± 0.05; (313.15 K) 0.62 ± 0.05; (318.15 K) 0.64 ± 0.06.

Take `C1CCCCC1` [cyclohexane] + CC(CC(C)(C)C)CP(=O)([O-])CC(C)CC(C)(C)C.CCCCCCCCCCCCCC[P+](CCCCCC)(CCCCCC)CCCCCC: the activity coefficient (303.15 K) stood at 0.51 ± 0.05, the activity coefficient (308.15 K) was 0.52 ± 0.05, the activity coefficient (313.15 K) was determined as 0.54 ± 0.05 and the activity coefficient (318.15 K) was 0.56 ± 0.05.

`C#CCCCCCC` [1-octyne] + CC(CC(C)(C)C)CP(=O)([O-])CC(C)CC(C)(C)C.CCCCCCCCCCCCCC[P+](CCCCCC)(CCCCCC)CCCCCC: the activity coefficient (303.15 K) is 0.28 ± 0.03, the activity coefficient (308.15 K) came out at 0.33 ± 0.04, the activity coefficient (313.15 K) is 0.36 ± 0.04 and the activity coefficient (318.15 K) was determined as 0.39 ± 0.04.

For `c1ccccc1` [benzene] + CC(CC(C)(C)C)CP(=O)([O-])CC(C)CC(C)(C)C.CCCCCCCCCCCCCC[P+](CCCCCC)(CCCCCC)CCCCCC, the activity coefficient is, setting by setting: (303.15 K) 0.44 ± 0.04; (308.15 K) 0.47 ± 0.04; (313.15 K) 0.48 ± 0.05; (318.15 K) 0.49 ± 0.05.

With `CCCCCC` [hexane] + CC(CC(C)(C)C)CP(=O)([O-])CC(C)CC(C)(C)C.CCCCCCCCCCCCCC[P+](CCCCCC)(CCCCCC)CCCCCC, the activity coefficient runs as follows: (303.15 K) 0.71 ± 0.06; (308.15 K) 0.73 ± 0.06; (313.15 K) 0.73 ± 0.06; (318.15 K) 0.75 ± 0.06.

As to `CCCCCCCC` [octane] + CC(CC(C)(C)C)CP(=O)([O-])CC(C)CC(C)(C)C.CCCCCCCCCCCCCC[P+](CCCCCC)(CCCCCC)CCCCCC, the activity coefficient is, setting by setting: (303.15 K) 0.79 ± 0.07; (308.15 K) 0.82 ± 0.07; (313.15 K) 0.85 ± 0.07; (318.15 K) 0.86 ± 0.07.

Consider `C=CCCCCCC` [oct-1-ene] + CC(CC(C)(C)C)CP(=O)([O-])CC(C)CC(C)(C)C.CCCCCCCCCCCCCC[P+](CCCCCC)(CCCCCC)CCCCCC, for which the activity coefficient is, setting by setting: (303.15 K) 0.75 ± 0.06; (308.15 K) 0.76 ± 0.06; (313.15 K) 0.78 ± 0.07; (318.15 K) 0.81 ± 0.07.

For `CCCCC` [pentane] + CC(CC(C)(C)C)CP(=O)([O-])CC(C)CC(C)(C)C.CCCCCCCCCCCCCC[P+](CCCCCC)(CCCCCC)CCCCCC, the activity coefficient runs as follows: (303.15 K) 0.66 ± 0.06; (308.15 K) 0.69 ± 0.06; (313.15 K) 0.7 ± 0.06; (318.15 K) 0.71 ± 0.06.

On to `C1CCCC1` [cyclopentane] + CC(CC(C)(C)C)CP(=O)([O-])CC(C)CC(C)(C)C.CCCCCCCCCCCCCC[P+](CCCCCC)(CCCCCC)CCCCCC, for which the activity coefficient (303.15 K) turned out to be 0.45 ± 0.04, the activity coefficient (308.15 K) turned out to be 0.46 ± 0.04, the activity coefficient (313.15 K) was 0.48 ± 0.05 and the activity coefficient (318.15 K) worked out at 0.5 ± 0.05.
